This note sets out measurements from paper PMC6720511, “Synthesis and biological evaluation of novel N-(piperazin-1-yl)alkyl-1H-dibenzo[a,c]carbazole derivatives of dehydroabietic acid as potential MEK inhibitors” (Journal of Enzyme Inhibition and Medicinal Chemistry, 2019).

In data set [1] the test system is normal hepatocyte cell line (QSG-7701). The experiment in a line: MTT cytotoxic assay on normal hepatocytes. It is filed as cell-based, human. Conditions: Homo sapiens, QSG7701, 48 h, mean value ± SD. As for the experimental part:
(§1) Three human hepatocarcinoma cell lines (SMMC-7721, HepG2 and Hep3B) and normal hepatocyte cell line (QSG-7701) were maintained in Dulbecco Modified Eagle Medium (DMEM) containing 4.0 mM L-Glutamine and 4500 mg/l Glucose supplemented with 10% (v/v) foetalbovine serum (FBS) and 100 unites/mL penicillin/streptomycin at 37 °C in humidified atmosphere of 5% CO2 and 95% air.
(§2) The in vitro cytotoxic activities of the carbazole derivatives of DHA were evaluated against three human hepatocarcinoma cell lines (SMMC-7721, HepG2 and Hep3B) and a normal human hepatocyte cell line (QSG-7701) via the MTT colorimetric method. Briefly, SMMC-7721, HepG2, Hep3B and QSG-7701 cells were harvested at log phase of growth and seeded in 96-well plates (100 µL/well at a density of 2 × 10^5 cells/mL). After 24 h incubation at 37 °C and 5% CO2 to allow cell attachment, cultures were exposed to various concentrations of the isolated compounds for 48 h. Finally, MTT solution (2.5 mg/mL in PBS) was added (40 µL/well). Plates were further incubated for 4 h at 37 °C, and the formazan crystals formed were dissolved by adding 150 µL/well of DMSO. Absorption at 570 nm was measured with an ELISA plate reader. […] Doxorubicin was co-assayed as positive control.
In general terms: Tetrazolium assays rely on reduction of a dye to a coloured formazan, in cell work by metabolically active cells.

The subject of data set [2] is three human hepatocarcinoma cell lines (SMMC-7721, HepG2 and Hep3B). As to the kind of experiment: MTT cytotoxic assay, statements over the three cancer cell lines. As to conditions: for cytotoxic activity against three cancer cell lines (in words): SMMC-7721, HepG2 and Hep3B; for IC50: Homo sapiens, at least one of SMMC-7721, HepG2, Hep3B, read-out: IC50 against at least one hepatocarcinoma cell line. It is filed as cell-based. As for the experimental part: as §1, §2

In another data set the test system is SMMC-7721. The experiment in a line: MTT cytotoxic assay. As to conditions: Homo sapiens, SMMC-7721, 48 h, mean value ± SD. It counts as cell-based, human. As to the method: as §1, §2
A further data set deals with HepG2. As to the kind of experiment: MTT cytotoxic assay. It is filed as cell-based, human. As to conditions: Homo sapiens, HepG2, 48 h, mean value ± SD. As for the experimental part: as §1, §2
The next data set deals with Hep3B. As to the kind of experiment: MTT cytotoxic assay. It is filed as cell-based, human. Conditions: Homo sapiens, Hep3B, 48 h, mean value ± SD. As to the method: as §1, §2
The next data set has as its target T1, MEK1 (Homo sapiens, UniProt Q02750).
T1 construct: purchased Carna Biosciences, Japan
As to the kind of experiment: In vitro MEK1 inhibition assay (ADP-Glo kinase assay). Conditions: recombinant GST-MEK1, GST-ERK2, 10 µM ATP, mean value ± SD; read-out: MEK1 inhibitory activity IC50 value. It is filed as biochemical. As to the method:
An in vitro kinase assay of MEK1 was performed using ADP-Glo kinase assay (Promega, Madison, WI, USA) according to the manufacturer’s protocol. […] Reactions were stopped by adding 5 µL of ADP-Glo reagent to each well. After incubating at 22 °C for 40 min, 10 µL of the kinase detection reagent was added and the plates were incubated for another 30 min at 22 °C in the dark. The reaction mixture was analysed by EnSpire (PerkinElmer, Waltham, MA, USA). U0126 was used as the positive control for MEK1 inhibition.

The subject of another data set is HepG2 cells. The experiment in a line: Cell death inhibition assay. It counts as cell-based, human. As to conditions: 24 h. As for the experimental part:
Figure 6. Compound 10g induced oncosis and apoptosis of HepG2 cells. (a) PD150606 and Z-VAD-FMK partially reversed compound 10g-induced cell death. HepG2 cells were incubated with PD150606, Z-VAD-FMK or Necrostatin-1 at indicated concentration for 24 h alone or in combination with compound 10g at indicated concentration for 24 h. (b) Compound 10g induced the degradation of α-tubulin and β-actin, and activated oncosis marker calpain-1 autolysis from the 80 kDa event to 76 kDa event in western blot analysis. *, p < 0.01; **, p < 0.01; #, p < 0.01; &, p < 0.001. (c) Compound 10g induced the upregulation of apoptotic protein Bax, caspase-3, caspase-9 and plasmic cytochrome c levels, and the downregulation of antiapoptotic protein Bcl-2 level. *, p < 0.001; **, p < 0.01; #, p < 0.01; and p < 0.01.

T1 sequence (Q02750 whole entry): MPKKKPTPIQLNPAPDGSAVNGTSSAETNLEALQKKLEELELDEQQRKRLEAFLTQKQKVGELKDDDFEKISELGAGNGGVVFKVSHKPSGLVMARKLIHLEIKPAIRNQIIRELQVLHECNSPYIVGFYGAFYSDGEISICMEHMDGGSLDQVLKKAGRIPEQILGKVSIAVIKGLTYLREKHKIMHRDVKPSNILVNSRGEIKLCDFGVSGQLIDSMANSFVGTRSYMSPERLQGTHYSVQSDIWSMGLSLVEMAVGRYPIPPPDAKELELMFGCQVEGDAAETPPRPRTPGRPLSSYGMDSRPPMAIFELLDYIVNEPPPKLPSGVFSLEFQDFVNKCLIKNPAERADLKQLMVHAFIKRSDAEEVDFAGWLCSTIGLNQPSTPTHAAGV

In the case of `CCN1CCN(CCn2c3c(c4ccccc42)C2C(C)(C(=O)OC)CCCC2(C)c2ccc(C(C)C)cc2-3)CC1` (stereo not shown) [Compound 6c, 2,3,4,4a,9,13c-Hexahydro-7-isopropyl-1,4a-dimethyl-9–(2-(4-ethylpiperazin-1-yl)ethyl)-1H-dibenzo[a,c]carbazole-1-carboxylic acid methyl ester], the half-inhibitory concentration (IC50) – broadly, the point on the concentration scale where inhibition reaches its midpoint – in data set [1] is 41.1 ± 3.69 µM; in the data set with SMMC-7721, 14 ± 2.1 µM; with HepG2 it was 17.4 ± 1.73 µM; in the data set on Hep3B it was 11 ± 0.65 µM. For the same molecule, the “cytotoxic activity against three cancer cell lines (in words)” value in data set [2] is reported as “moderate activity”.
`COC(=O)C1(C)CCCC2(C)c3ccc(C(C)C)cc3-c3c(c4ccccc4n3CCN3CCCNCC3)C12` (stereo not shown) [Compound 6d, 2,3,4,4a,9,13c-Hexahydro-7-isopropyl-1,4a-dimethyl-9–(2-(1,4-diazepan-1-yl)ethyl)-1H-dibenzo[a,c]carbazole-1-carboxylic acid methyl ester]: the IC50 in data set [1] is 22.1 ± 2.75 µM; in data set [2], under 10 µM; in the data set with SMMC-7721, 7.01 ± 0.74 µM; in the data set on HepG2 it was 5.87 ± 0.42 µM; in the data set with Hep3B, 6.31 ± 0.33 µM.
With `COC(=O)C1(C)CCCC2(C)c3ccc(C(C)C)cc3-c3c(c4ccccc4n3CCN3CCN(C=O)CC3)C12` (stereo not shown) [Compound 6e, 2,3,4,4a,9,13c-Hexahydro-7-isopropyl-1,4a-dimethyl-9–(2-(4-formylpiperazin-1-yl)ethyl)-1H-dibenzo[a,c]carbazole-1-carboxylic acid methyl ester], the half-maximal inhibitory concentration (IC50) was over 50 µM in data set [1], 17.3 ± 1.78 µM with SMMC-7721, 15.7 ± 1.61 µM in the data set with HepG2 and 11.4 ± 0.53 µM in the data set with Hep3B. Moreover, the “cytotoxic activity against three cancer cell lines (in words)” value in data set [2] is recorded as “moderate inhibitions”.
For the molecule `COC(=O)C1(C)CCCC2(C)c3ccc(C(C)C)cc3-c3c(c4ccccc4n3CCCN3CCN(C)CC3)C12` (stereo not shown) [Compound 7b, 2,3,4,4a,9,13c-Hexahydro-7-isopropyl-1,4a-dimethyl-9–(3-(4-methylpiperazin-1-yl)propyl)-1H-dibenzo[a,c]carbazole-1-carboxylic acid methyl ester], the IC50 in data set [1] is over 50 µM; in data set [2] it was under 10 µM; in the data set with SMMC-7721, 6.8 ± 0.72 µM; in the data set on HepG2, 29 ± 1.29 µM; in the data set with Hep3B it was 5.98 ± 0.39 µM.
Regarding `COC(=O)C1(C)CCCC2(C)c3ccc(C(C)C)cc3-c3c(c4cc(C)ccc4n3CCN3CCNCC3)C12` (stereo not shown) [Compound 10a, 2,3,4,4a,9,13c-Hexahydro-7-isopropyl-1,4a,12-trimethyl-9–(2-(piperazin-1-yl)ethyl)-1H-dibenzo[a,c]carbazole-1-carboxylic acid methyl ester], the half-maximal inhibitory concentration (IC50) in data set [1] stood at 16.3 ± 1.56 µM; in the data set on SMMC-7721 it was 1.73 ± 0.22 µM; in the data set with HepG2, 3.05 ± 0.37 µM; in the data set on Hep3B, 1.17 ± 0.12 µM; on MEK1, 6.36 ± 0.51 µM.
Turning to `COC(=O)C1(C)CCCC2(C)c3ccc(C(C)C)cc3-c3c(c4cccc(C)c4n3CCN3CCNCC3)C12` (stereo not shown) [Compound 10b, 2,3,4,4a,9,13c-Hexahydro-7-isopropyl-1,4a,10-trimethyl-9–(2-(piperazin-1-yl)ethyl)-1H-dibenzo[a,c]carbazole-1-carboxylic acid methyl ester], the IC50 in data set [1] is 21.9 ± 1.72 µM; in the data set on SMMC-7721 it was 5.52 ± 0.47 µM; in the data set with HepG2, 6.11 ± 0.38 µM; with Hep3B, 5.03 ± 0.31 µM; at MEK1 it was over 20 µM.
The corresponding values for `CCc1ccc2c(c1)c1c(n2CCN2CCNCC2)-c2cc(C(C)C)ccc2C2(C)CCCC(C)(C(=O)OC)C12` (stereo not shown) [Compound 10c, 2,3,4,4a,9,13c-Hexahydro-12-ethyl-7-isopropyl-1,4a-dimethyl-9–(2-(piperazin-1-yl)ethyl)-1H-dibenzo[a,c]carbazole-1-carboxylic acid methyl ester] are 22.2 ± 1.81 µM, 6.56 ± 0.19 µM, 7.27 ± 0.51 µM, 5.84 ± 0.36 µM and over 20 µM.
For the molecule `COC(=O)C1(C)CCCC2(C)c3ccc(C(C)C)cc3-c3c(c4cc(C(C)C)ccc4n3CCN3CCNCC3)C12` (stereo not shown) [Compound 10d, 2,3,4,4a,9,13c-Hexahydro-7,12-diisopropyl-1,4a-dimethyl-9–(2-(piperazin-1-yl)ethyl)-1H-dibenzo[a,c]carbazole-1-carboxylic acid methyl ester], the IC50 in data set [1] was 31 ± 2.39 µM; with SMMC-7721, 10.5 ± 0.48 µM; in the data set with HepG2 it was 8.42 ± 0.39 µM; in the data set with Hep3B, 8.85 ± 0.42 µM; at MEK1, over 20 µM.
The corresponding values for `COC(=O)C1(C)CCCC2(C)c3ccc(C(C)C)cc3-c3c(c4cc(OC)ccc4n3CCN3CCNCC3)C12` (stereo not shown) [Compound 10e, 2,3,4,4a,9,13c-Hexahydro-7-isopropyl-12-methoxy-1,4a-dimethyl-9–(2-(piperazin-1-yl)ethyl)-1H-dibenzo[a,c]carbazole-1-carboxylic acid methyl ester] are 15.3 ± 1.13 µM, 3.02 ± 0.21 µM, 3.73 ± 0.19 µM, 4.38 ± 0.35 µM and 1.28 ± 0.06 µM.
The like results for `COC(=O)C1(C)CCCC2(C)c3ccc(C(C)C)cc3-c3c(c4cccc(OC)c4n3CCN3CCNCC3)C12` (stereo not shown) [Compound 10f, 2,3,4,4a,9,13c-Hexahydro-7-isopropyl-10-methoxy-1,4a-dimethyl-9–(2-(piperazin-1-yl)ethyl)-1H-dibenzo[a,c]carbazole-1-carboxylic acid methyl ester] were, in that order, 17.3 ± 0.78 µM, 2.03 ± 0.15 µM, 3.15 ± 0.13 µM, 2.23 ± 0.16 µM and 0.23 ± 0.03 µM.
The like results for `CCOc1cccc2c3c(n(CCN4CCNCC4)c12)-c1cc(C(C)C)ccc1C1(C)CCCC(C)(C(=O)OC)C31` (stereo not shown) [Compound 10h, 2,3,4,4a,9,13c-Hexahydro-10-ethoxy-7-isopropyl-1,4a-dimethyl-9–(2-(piperazin-1-yl)ethyl)-1H-dibenzo[a,c]carbazole-1-carboxylic acid methyl ester] were, in that order, 18.9 ± 1.09 µM, 2.21 ± 0.17 µM, 4.87 ± 0.48 µM, 1.78 ± 0.12 µM and 1.63 ± 0.12 µM.
Turning to `COC(=O)C1(C)CCCC2(C)c3ccc(C(C)C)cc3-c3c(c4cc(F)ccc4n3CCN3CCNCC3)C12` (stereo not shown) [Compound 10i, 2,3,4,4a,9,13c-Hexahydro-12-fluoro-7-isopropyl-1,4a-dimethyl-9–(2-(piperazin-1-yl)ethyl)-1H-dibenzo[a,c]carbazole-1-carboxylic acid methyl ester], the 50% inhibitory concentration (IC50) in data set [1] is 23.7 ± 1.53 µM; in the data set on SMMC-7721, 4.32 ± 0.27 µM; in the data set on HepG2, 3.91 ± 0.34 µM; in the data set on Hep3B it was 3.32 ± 0.2 µM; on MEK1, over 20 µM.
The corresponding values for `COC(=O)C1(C)CCCC2(C)c3ccc(C(C)C)cc3-c3c(c4cc(Cl)ccc4n3CCN3CCNCC3)C12` (stereo not shown) [Compound 10j, 2,3,4,4a,9,13c-Hexahydro-12-chloro-7-isopropyl-1,4a-dimethyl-9–(2-(piperazin-1-yl)ethyl)-1H-dibenzo[a,c]carbazole-1-carboxylic acid methyl ester] are 12.2 ± 1.01 µM, 2.49 ± 0.18 µM, 2.88 ± 0.23 µM, 3.75 ± 0.34 µM and 5.62 ± 0.48 µM.
Turning to `CN1C(=O)C(Cc2c[nH]c3ccccc23)NC1=S` (stereo not shown) [Necrostatin-1], the “effect of inhibitor on cell death caused by compound 10g (in words)” value in the data set on HepG2 cells (in combination with 10g) is recorded as “no apparent effect”.
`O=C(O)/C(S)=C/c1ccc(I)cc1` [PD150606]: the “relative cell viability of HepG2 cells treated with 10g plus inhibitor” value in the data set on HepG2 cells (10g 10 µM in combination with PD150606 50 µM) was 44.87%.
